Data on 7 compounds can be found in ChEMBL document CHEMBL1201862, “PubChem BioAssay data set” (2004).

One test deals with T1, Protein RecA (Mycobacterium tuberculosis, UniProt P9WHJ3).
T1 sequence (P9WHJ3 whole entry): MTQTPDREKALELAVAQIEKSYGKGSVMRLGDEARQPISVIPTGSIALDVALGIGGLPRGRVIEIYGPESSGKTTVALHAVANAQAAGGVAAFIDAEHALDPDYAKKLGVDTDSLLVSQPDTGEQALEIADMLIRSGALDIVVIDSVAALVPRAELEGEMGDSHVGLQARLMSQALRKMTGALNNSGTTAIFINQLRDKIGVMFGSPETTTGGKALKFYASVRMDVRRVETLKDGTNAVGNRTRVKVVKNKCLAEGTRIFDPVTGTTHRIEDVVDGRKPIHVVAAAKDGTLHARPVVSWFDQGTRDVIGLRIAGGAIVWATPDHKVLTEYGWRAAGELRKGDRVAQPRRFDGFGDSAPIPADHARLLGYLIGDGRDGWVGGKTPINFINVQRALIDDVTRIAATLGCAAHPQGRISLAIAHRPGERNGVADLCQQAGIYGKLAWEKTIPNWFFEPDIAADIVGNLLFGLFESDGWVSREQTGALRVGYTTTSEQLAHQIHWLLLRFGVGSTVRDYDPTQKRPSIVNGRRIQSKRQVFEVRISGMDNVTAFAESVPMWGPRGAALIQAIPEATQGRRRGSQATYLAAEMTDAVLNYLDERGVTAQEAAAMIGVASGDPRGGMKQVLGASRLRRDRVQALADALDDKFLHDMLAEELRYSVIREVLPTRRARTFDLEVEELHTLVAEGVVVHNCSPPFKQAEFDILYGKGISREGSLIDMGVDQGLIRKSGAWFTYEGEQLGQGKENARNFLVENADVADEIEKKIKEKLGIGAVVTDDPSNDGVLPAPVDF
The test can be described thus: Fluorescence Cell-Free Homogeneous Dose Retest to Identify Inhibitors of RecA-Intein Splicing Activity. [Related pubchem assays (depositor defined):AID2097, AID2223, AID489010, AID492950]. Format: functional.

Test [1] can be described thus: Intein inhibitors as potential Tuberculosis drugs, a cytotoxicity screen. [Related pubchem assays (depositor defined):AID2221, AID2223, AID434968, AID435010, AID449749, AID449750, AID489010]. Format: functional.
Test [2] addresses T2, Replicative DNA helicase DnaB (Mycobacterium tuberculosis, UniProt P9WMR3).
T2 sequence (P9WMR3 whole entry): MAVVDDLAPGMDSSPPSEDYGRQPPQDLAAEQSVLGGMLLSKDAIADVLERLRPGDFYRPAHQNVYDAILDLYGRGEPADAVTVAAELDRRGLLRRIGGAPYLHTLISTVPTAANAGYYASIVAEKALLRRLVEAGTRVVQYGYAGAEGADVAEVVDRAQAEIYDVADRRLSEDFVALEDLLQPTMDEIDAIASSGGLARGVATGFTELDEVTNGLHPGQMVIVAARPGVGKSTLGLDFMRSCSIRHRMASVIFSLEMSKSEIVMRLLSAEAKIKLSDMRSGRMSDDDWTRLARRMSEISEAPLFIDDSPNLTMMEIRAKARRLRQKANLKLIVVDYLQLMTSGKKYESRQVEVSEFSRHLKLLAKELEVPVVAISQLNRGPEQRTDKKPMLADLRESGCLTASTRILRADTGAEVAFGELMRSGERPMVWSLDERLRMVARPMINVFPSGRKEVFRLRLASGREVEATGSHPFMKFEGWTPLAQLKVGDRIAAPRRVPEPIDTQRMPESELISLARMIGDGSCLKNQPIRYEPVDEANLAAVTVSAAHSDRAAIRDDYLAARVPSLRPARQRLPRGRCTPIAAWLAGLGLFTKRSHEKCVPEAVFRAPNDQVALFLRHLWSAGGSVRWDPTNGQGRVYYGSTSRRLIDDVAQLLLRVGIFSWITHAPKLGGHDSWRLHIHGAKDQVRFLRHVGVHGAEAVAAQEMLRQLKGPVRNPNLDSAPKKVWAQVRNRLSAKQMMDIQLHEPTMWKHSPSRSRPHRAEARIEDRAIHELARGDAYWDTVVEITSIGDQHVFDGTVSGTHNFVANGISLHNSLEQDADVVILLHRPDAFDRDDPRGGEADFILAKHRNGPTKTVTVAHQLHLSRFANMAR
Description: DnaB intein splicing inhibitors, dose response, biochemical, cell-free fluorescence (AID 449749). Type of test: functional.

In the next test the test system is INS1. Description: INS-1E survival protection against cytokine death – cell-based, luminescence, retest, dose response (AID 449756).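 Note: cell death triggered by IL-1 beta plus TNF-alpha plus IFN-gamma mixture; protective hits raise ATP signal compared with cytokine alone wells.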 The note with it: Rattus norvegicus. Type of test: functional.
Test [3] addresses 72 kDa type IV collagenase (Homo sapiens, UniProt P08253). Description: Dose Response validation of uHTS RPN11 inhibitor hits using a MMP-2 Fluorescence assay. Format: functional.
For another test, the target named is Albumin (Bos taurus, UniProt P02769). Description: Counterscreen for inhibitors of T-cell receptor (TCR)-CD3 interaction: Fluorescence-based biochemical high throughput dose response assay to identify inhibitors of T-cell receptor (TCR)-CD3 interaction using a TAMRA-labeled BSA probe. Type of test: functional.
Test [4] in a line: NIH-3T3 fibroblast cytotoxicity, dose response, cytotoxicity control, cell-based, fluorescence, Alamar Blue, secondary assay (AID 2327).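 Note: NIH-3T3 mouse fibroblasts cultured with fluconazole at 8 µg/mL.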 Format: functional. (In general: The colour change of resazurin is a common sign of viable cells or microbes.)
A short description of test [5]: THP-1 cell cytotoxicity, dose response, cytotoxicity control for non-replicating M. tuberculosis project (AID 489025). Type of test: functional.
The target in test [6] is 26S proteasome non-ATPase regulatory subunit 14 (Homo sapiens, UniProt O00487). The test can be described thus: inhibition of proteasome subunit RPN11 – biochemical, fluorescence polarization, uHTS hits, confirmation (AID 602368). Format: functional. Background: In fluorescence polarisation assays a small probe gives low polarisation when free and higher when bound to something large.

Test [7] can be described thus: Vero E6 cell cytotoxicity, dose response, cytotoxicity control for non-replicating M. tuberculosis project, secondary assay (AID 492998). Type of test: functional, VeroE6. The note with it: Vero C1008.
The nature of test [8]: fluconazole-exposed Candida albicans growth modulators – fluorescence, retest, confirmation (AID 2467). Type of test: functional, cell-based.
Test [9] can be described thus: cells. Type of test: functional, cell-based.
The target in another test is Prothrombin (Bos taurus, UniProt P00735). The test can be described thus: thrombin protease inhibitors – biochemical, fluorescence polarization, uHTS hits, dose response (AID 602369). Type of test: functional.
The nature of test [10]: HepG2 cell cytotoxicity, dose response, cytotoxicity control for non-replicating M. tuberculosis project (AID 489018). Format: functional. The note with it: Mycobacterium tuberculosis.
Test [11] is described as follows: cells. Format: functional, cell-based. This is another data set of the same source.
For test [12], the target named is T3, Adenosylmethionine-8-amino-7-oxononanoate aminotransferase (Mycobacterium tuberculosis, UniProt P9WQ81).
T3 sequence (P9WQ81 whole entry): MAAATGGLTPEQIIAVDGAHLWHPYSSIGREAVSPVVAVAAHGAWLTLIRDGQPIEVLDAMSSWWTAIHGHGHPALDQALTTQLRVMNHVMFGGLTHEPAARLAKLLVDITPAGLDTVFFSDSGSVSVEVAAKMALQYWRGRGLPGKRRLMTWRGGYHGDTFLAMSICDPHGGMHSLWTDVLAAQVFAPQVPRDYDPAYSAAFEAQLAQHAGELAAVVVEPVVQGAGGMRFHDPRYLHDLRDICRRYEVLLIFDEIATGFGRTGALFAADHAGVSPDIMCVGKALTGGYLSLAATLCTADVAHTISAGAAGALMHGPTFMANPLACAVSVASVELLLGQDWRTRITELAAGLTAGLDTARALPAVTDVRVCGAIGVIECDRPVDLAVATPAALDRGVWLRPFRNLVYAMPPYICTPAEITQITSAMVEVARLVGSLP
Description: Mycobacterium tuberculosis BioA enzyme inhibitor Measured in Biochemical System Using Plate Reader - 2163-02_Inhibitor_Dose_CherryPick_Activity. Type of test: functional, Mycobacterium tuberculosis UT205.

Test [13] concerns the target T4, CAAX prenyl protease 2 (Homo sapiens, UniProt Q9Y256).
T4 sequence (Q9Y256 whole entry): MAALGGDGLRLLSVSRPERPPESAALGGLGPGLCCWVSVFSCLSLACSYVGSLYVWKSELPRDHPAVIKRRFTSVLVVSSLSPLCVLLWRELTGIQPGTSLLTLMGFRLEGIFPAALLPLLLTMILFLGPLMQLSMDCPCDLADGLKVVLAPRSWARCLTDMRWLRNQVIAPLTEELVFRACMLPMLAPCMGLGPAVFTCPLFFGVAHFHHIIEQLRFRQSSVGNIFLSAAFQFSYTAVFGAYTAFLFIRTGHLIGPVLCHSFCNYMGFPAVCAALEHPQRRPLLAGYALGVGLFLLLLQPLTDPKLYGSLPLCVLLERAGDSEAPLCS
The test can be described thus: inhibition of Ras-converting CAAX protease Rce1 – biochemical, yeast membranes, quenched-peptide fluorescence, cherry-pick, dose response (AID 588849).

For test [14], the target named is T5, CAAX prenyl protease 2 (Saccharomyces cerevisiae S288c, UniProt Q03530).
T5 sequence (Q03530 whole entry): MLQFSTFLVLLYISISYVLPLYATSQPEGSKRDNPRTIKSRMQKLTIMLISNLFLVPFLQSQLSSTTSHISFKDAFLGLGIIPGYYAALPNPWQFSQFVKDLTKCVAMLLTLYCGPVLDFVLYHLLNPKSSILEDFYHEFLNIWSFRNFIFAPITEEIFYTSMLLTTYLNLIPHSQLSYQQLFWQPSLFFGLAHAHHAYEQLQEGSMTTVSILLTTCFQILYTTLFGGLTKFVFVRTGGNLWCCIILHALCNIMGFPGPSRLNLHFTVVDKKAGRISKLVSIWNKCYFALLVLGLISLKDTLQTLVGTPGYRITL
Type of test: biochemical.

Another test addresses T6, Hexokinase (Trypanosoma brucei, UniProt Q38C41).
T6 sequence (Q38C41 whole entry): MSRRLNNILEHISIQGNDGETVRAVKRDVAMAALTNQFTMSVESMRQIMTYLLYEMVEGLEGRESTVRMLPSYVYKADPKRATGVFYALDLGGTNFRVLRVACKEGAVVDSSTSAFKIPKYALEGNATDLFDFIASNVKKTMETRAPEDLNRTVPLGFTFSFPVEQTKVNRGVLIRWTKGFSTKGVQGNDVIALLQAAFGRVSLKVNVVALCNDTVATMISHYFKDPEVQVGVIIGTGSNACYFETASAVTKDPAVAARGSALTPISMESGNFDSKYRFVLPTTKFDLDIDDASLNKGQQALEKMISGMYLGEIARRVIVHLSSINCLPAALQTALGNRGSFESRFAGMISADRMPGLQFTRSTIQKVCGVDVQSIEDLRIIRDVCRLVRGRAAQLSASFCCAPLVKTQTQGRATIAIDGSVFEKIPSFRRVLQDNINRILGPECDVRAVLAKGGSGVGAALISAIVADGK
The test can be described thus: Confirmation assay for inhibitors of Trypanosoma brucei hexokinase 1-Analogue-first series. [Related pubchem assays (depositor defined):AID1430, AID1632, AID2516, AID2560, AID2579, AID2600, AID449725, AID492951]. Type of test: functional.

The next test deals with Trypsin (Sus scrofa, UniProt P00761). The test can be described thus: trypsin protease activity blockade – biochemical, quenched peptide fluorescence, cherry-pick, selectivity assay for Rce1 protease inhibitor project, dose response (AID 488789).

Each structure is given as a SMILES string. Activity calls are given as the source filed them.

As a reminder, the EC50 is the concentration needed to bring the measured effect to its halfway point. The term CC50 denotes the concentration giving 50% cytotoxicity. By AC50 is commonly meant the concentration at which the activity in the assay is half-maximal. As a reminder, the IC50 is the concentration needed to halve the response being measured.

Sequence of Trypsin (P00761 whole entry): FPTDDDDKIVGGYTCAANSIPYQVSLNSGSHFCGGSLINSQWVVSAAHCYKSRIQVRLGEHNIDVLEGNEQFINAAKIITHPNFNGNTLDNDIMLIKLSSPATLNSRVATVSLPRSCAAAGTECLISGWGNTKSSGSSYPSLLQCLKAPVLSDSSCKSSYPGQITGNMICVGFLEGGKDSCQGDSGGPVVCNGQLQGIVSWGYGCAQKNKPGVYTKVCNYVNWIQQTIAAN
Sequence of 72 kDa type IV collagenase (P08253 whole entry): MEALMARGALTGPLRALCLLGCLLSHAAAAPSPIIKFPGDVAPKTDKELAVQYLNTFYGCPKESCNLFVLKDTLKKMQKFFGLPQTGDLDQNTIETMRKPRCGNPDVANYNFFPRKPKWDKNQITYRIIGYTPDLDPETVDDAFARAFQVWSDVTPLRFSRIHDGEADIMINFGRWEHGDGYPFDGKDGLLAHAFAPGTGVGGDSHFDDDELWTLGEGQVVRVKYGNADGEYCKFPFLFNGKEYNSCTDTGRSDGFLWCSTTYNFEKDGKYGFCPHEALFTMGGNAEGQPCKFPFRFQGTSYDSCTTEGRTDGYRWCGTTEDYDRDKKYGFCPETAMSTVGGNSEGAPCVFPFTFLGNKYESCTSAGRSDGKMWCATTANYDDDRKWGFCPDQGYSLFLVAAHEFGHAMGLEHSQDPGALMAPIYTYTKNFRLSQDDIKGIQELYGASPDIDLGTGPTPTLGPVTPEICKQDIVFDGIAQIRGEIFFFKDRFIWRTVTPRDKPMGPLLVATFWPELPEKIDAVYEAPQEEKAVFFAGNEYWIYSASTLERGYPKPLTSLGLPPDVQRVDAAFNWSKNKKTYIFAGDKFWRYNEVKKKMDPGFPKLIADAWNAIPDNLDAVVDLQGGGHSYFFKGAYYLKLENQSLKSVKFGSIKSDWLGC
Sequence of 26S proteasome non-ATPase regulatory subunit 14 (O00487 whole entry): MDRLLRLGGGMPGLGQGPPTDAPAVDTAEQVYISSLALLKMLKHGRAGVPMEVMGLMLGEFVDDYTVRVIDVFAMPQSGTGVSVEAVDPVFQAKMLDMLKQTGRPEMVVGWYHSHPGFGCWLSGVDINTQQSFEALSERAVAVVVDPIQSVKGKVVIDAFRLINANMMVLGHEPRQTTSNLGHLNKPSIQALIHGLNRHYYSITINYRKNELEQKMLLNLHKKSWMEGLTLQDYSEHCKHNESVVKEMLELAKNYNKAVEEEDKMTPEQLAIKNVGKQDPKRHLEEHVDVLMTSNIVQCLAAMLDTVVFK
Sequence of Albumin (P02769 whole entry): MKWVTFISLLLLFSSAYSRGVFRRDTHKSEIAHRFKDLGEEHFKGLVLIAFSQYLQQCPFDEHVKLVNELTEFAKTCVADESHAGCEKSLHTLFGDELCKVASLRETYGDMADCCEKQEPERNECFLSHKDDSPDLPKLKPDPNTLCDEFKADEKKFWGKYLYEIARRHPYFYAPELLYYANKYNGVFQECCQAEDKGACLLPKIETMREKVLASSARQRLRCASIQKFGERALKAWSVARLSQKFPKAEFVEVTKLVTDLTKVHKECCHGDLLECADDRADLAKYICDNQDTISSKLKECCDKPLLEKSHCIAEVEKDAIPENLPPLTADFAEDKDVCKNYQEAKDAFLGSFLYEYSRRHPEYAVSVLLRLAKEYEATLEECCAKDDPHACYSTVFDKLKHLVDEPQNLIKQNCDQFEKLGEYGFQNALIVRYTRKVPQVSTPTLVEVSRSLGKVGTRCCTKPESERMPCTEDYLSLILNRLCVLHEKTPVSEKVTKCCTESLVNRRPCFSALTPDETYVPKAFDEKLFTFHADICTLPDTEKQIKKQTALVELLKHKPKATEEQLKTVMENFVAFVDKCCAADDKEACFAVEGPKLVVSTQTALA

As for `COC(=O)c1sc(-c2ccc(Cl)cc2)cc1NC(=O)/C=C/C(=O)O`, the EC50 at Protein RecA was 2.44 µM (active). The CC50 in [1] was 24.2 µM (active). Besides, in test [2], the AC50 is 4.02 µM (active).
Take `O=C(N/N=C/c1cc(Br)cc(Cl)c1O)c1ccc2c(c1)OCO2`: in the test on INS1, the AC50 was 4.16 µM (active). In addition, the IC50 in [3] is 65.4 µM (active); on Albumin, > 94.1 µM (inactive); in test [6], 15.5 µM (active); on Prothrombin, 33.8 µM (active). Moreover, the EC50 is > 150 µM (inactive) in [4], 1.03 µM (active) in test [8], 22.1 µM (active) in “cells [9]” and > 350 µM (not active) in “cells [11]”. Besides, the half-maximal cytotoxic concentration (CC50) was 1.95 µM (active) in [5], 7.35 µM (active) in test [7] and 16.1 µM (active) in test [10].
With `O=[N+]([O-])c1ccc(C[n+]2c(-c3ccccc3)cc(-c3ccccc3)cc2-c2ccccc2)cc1.[O-][Cl+3]([O-])([O-])[O-]`, the EC50 is 23.7 µM (active) in test [4] and 2.75 µM (active) in test [8]. Besides, the AC50 in test [12] was 4.55 µM (active); on CAAX prenyl protease 2 [13] it was 68.4 µM (active); on CAAX prenyl protease 2 [14] it was 81.6 µM (active).
In the case of `COc1ccc(C(=O)Nc2cc(Cl)c(Br)cc2C(=O)O)cc1`, the IC50 on Hexokinase was 4.59 µM (active).
Consider `O=C(O)c1ccccc1NCCO`, for which the AC50 is 5.81 µM (active) on CAAX prenyl protease 2 [13], 8.2 µM (active) on Trypsin and 16.1 µM (active) on CAAX prenyl protease 2 [14].
Take `COc1cc(C(=O)Nc2cc(Cl)ccc2C(=O)O)cc(OC)c1OC`: the IC50 on Hexokinase is > 25 µM (inactive).
The same measure, in the same setting: to `O=C(Cn1sc2ccccc2c1=O)Nc1ccccc1F` belongs 5.8 µM (active).
